# Assay results from US12209087B2, “AKT1 modulators” (Alterome Therapeutics, Inc., priority 2022, dated 2025).
# pIC50: −log10 of the molar value.
# Biological target: T1, full length AKT E17K (Homo sapiens, UniProt P31749, E17K)
# T1 construct: host or cells: HEK-293 (ATCC CRL-1573)
# Assay: NanoBRET Target Engagement (TE) Assay
# Assay type: cell-based
# Settings: competitive displacement of tracer in cells, read-out: AKT1 E17K IC50
# Summary of the method: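 Compound and tracer incubated 2 h before luminescence at donor 450 nm and acceptor 600 nm, with extracellular signal inhibited. EC50 by sigmoidal variable-slope regression.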
# T1 sequence (P31749 whole entry E17K): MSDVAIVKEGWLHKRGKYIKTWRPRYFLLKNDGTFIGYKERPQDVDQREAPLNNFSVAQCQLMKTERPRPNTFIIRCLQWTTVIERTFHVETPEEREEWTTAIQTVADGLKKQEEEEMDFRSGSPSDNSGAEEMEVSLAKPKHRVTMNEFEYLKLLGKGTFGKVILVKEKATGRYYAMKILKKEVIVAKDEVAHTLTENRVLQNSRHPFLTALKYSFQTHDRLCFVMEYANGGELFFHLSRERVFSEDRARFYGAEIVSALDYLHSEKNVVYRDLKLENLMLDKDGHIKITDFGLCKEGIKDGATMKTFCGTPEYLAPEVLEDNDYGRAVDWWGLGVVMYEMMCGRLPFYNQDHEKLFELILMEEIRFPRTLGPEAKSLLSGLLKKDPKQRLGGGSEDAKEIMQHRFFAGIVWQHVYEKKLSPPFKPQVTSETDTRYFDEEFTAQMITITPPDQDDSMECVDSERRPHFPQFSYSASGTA
row,pIC50,SMILES
1,> 7.82,"N#Cc1nccc(NC2CCN(Cc3ccc(-n4c(-c5cccnc5N)nc5ccc(-c6ccc(C(F)F)nc6)nc54)cc3)CC2)n1 [Example 645, 4-((1-(4-(2-(2-Aminopyridin-3-yl)-5-(6-(difluoromethyl)pyridin-3-yl)-3H-imidazo[4,5-b]pyridin-3-yl)benzyl)piperidin-4-yl)amino)pyrimidine-2-carbonitrile]"
2,> 7.82,"N#Cc1nccc(NC2CCN(Cc3ccc(-n4c(-c5cccnc5N)nc5ccc(-c6ccc(C(F)(F)F)nc6)nc54)cc3)CC2)n1 [Example 646, 4-((1-(4-(2-(2-Aminopyridin-3-yl)-5-(6-(trifluoromethyl)pyridin-3-yl)-3H-imidazo[4,5-b]pyridin-3-yl)benzyl)piperidin-4-yl)amino)pyrimidine-2-carbonitrile]"
3,> 7.82,"CCc1ccc(-c2ccc3nc(-c4cccnc4N)n(-c4ccc(CN5CCC(Nc6ccnc(C#N)n6)CC5)cc4)c3n2)nc1 [Example 647, 4-((1-(4-(2-(2-Aminopyridin-3-yl)-5-(5-ethylpyridin-2-yl)-3H-imidazo[4,5-b]pyridin-3-yl)benzyl)piperidin-4-yl)amino)pyrimidine-2-carbonitrile]"
4,> 7.82,"N#Cc1nccc(NC2CCN(Cc3ccc(-n4c(-c5cccnc5N)nc5ccc(-c6ccc(CF)cn6)nc54)cc3)CC2)n1 [Example 648, 4-((1-(4-(2-(2-Aminopyridin-3-yl)-5-(5-(fluoromethyl)pyridin-2-yl)-3H-imidazo[4,5-b]pyridin-3-yl)benzyl)piperidin-4-yl)amino)pyrimidine-2-carbonitrile]"
5,> 7.82,"N#Cc1nccc(NC2CCN(Cc3ccc(-n4c(-c5cccnc5N)nc5ccc(-c6ccc(C(F)F)cn6)nc54)cc3)CC2)n1 [Example 649, 4-((1-(4-(2-(2-Aminopyridin-3-yl)-5-(5-(difluoromethyl)pyridin-2-yl)-3H-imidazo[4,5-b]pyridin-3-yl)benzyl)piperidin-4-yl)amino)pyrimidine-2-carbonitrile]"
6,7.22 to 7.82,"N#Cc1nccc(NC2CCN(Cc3ccc(-n4c(-c5cccnc5N)nc5ccc(-c6ccc(C(F)(F)F)cn6)nc54)cc3)CC2)n1 [Example 650, 4-((1-(4-(2-(2-Aminopyridin-3-yl)-5-(5-(trifluoromethyl)pyridin-2-yl)-3H-imidazo[4,5-b]pyridin-3-yl)benzyl)piperidin-4-yl)amino)pyrimidine-2-carbonitrile]"
